From patent publication US20260007674A1, “Novel Chemotypes for Treating Parasitic Diseases and Methods of Use” (The Medical College of Wisconsin, Inc., priority 2022, published 2026)
Entries after “also recorded” stand apart in the source; their conditions may differ.

Legend:
[1] = Toxicity observation in treated mice of the schistosomiasis model; assay type: in vivo; settings: 50 mg/kg intraperitoneal 1× daily for 3 days
Experimental: (§1) All animal experiments followed ethical regulations approved by the MCW IACUC committee. At 7 weeks post-infection, mice were randomly sorted into 4 groups of 13 mice. One group was left untreated as a control. A second group was treated with vehicle (a mixture of DMSO/PEG400/H2O). A third group was treated with praziquantel (50 mg/kg, intraperitoneal, 1× daily) for 3 days in a row. In addition, a fourth group was treated with BZQ/S55 in the same fashion as praziquantel. Four days after the first treatment, the mice were euthanized, and the mesenteric vasculature was dissected in the usual fashion to recover schistosomes. The worm burden from each mouse was individually plotted (FIG. 16). There was no significant difference between untreated mice and mice treated with vehicle, confirming that the vehicle the drugs were dosed in had no effect on worm burden.

S. mansoni [2] = experiment: Adult schistosome movement assay ex vivo (contraction and paralysis); assay type: cell-based, Schistosoma mansoni
Experimental: It was observed that N-amidoquinazolinones contract S. mansoni in a manner similar to the channel activator (and standard of treatment) praziquantel. Adult schistosomes were harvested from the mesenteric vasculature of female Swiss Webster mice previously infected (˜49 days earlier). Harvested schistosomes were washed in RPMI 1640 supplemented with 5% heat inactivated FBS, HEPES, and penicillin-streptomycin. After isolation, worms were incubated overnight in vented petri dishes. Movement assays were performed using male and female worms in six well dishes (˜5 individual worms/3 ml media per well). Schistosomes were treated with a molecule such as compound 4, and video recordings of worm motility were captured using a stereomicroscope coupled to a CCD camera. […] It was also observed that 2-amidoacrylates or 2-amidoacrylamides contract S. mansoni in a manner similar to the channel activator (and standard of treatment) praziquantel. The worm mobility assay performed in FIG. 13 is same as that performed in FIG. 3. Briefly, adult schistosomes were harvested from the mesenteric vasculature of female Swiss Webster mice previously infected (˜49 days earlier). Harvested schistosomes were washed in RPMI 1640 supplemented with 5% heat inactivated FBS, HEPES, and penicillin-streptomycin. After isolation, worms were incubated overnight in vented petri dishes. […]

S. mansoni [3] = experiment: Electron microscopy of tegument of treated S. mansoni; assay type: cell-based, Schistosoma mansoni; settings: FIG. 17H, 17I
S. mansoni [4] = experiment: Murine model of schistosomiasis, worm burden; assay type: in vivo, mice; settings: 50 mg/kg intraperitoneal 1× daily for 3 days, FIG. 16; for worm burden: Female Swiss Webster mice, 7 weeks post-infection, recovery four days after first treatment
Experimental: as §1

Fasciola hepatica = experiment: Ex vivo treatment of immature and adult F. hepatica (contraction, motility, viability); assay type: cell-based
Experimental: Briefly, Male Wistar rats served as the final host to obtain immature and adult stages of F. hepatica after infection with metacercariae from an Italian strain of F. hepatica. Immature flukes were collected from livers 4 weeks post-infection. Adult flukes were collected from bile ducts at 12 weeks post-infection. Worms were kept for 1 h in normal saline to allow clearance of gut contents and then used for experiments. In vitro experiments were performed utilizing a similar procedure as previously reported. Excised worms were treated with different concentrations of praziquantel, triclabendazole, BZQ/S55, S5, and S69, or DMSO as a negative control. The flukes were incubated at 37° C. in a 5% CO2 atmosphere for 72 h, and inhibitor-induced effects on worm viability were assessed using a stereomicroscope at 10× magnification. Worm motility was assessed using the following scores: 3 (normal motility), 2 (reduced motility), 1 (minimal and sporadic movements), and 0 (no movement even upon mechanical stimulation with forceps; considered dead). Representative results from these studies are shown FIGS. 17A-L.

F. hepatica = experiment: Electron microscopy of tegument of treated F. hepatica; assay type: cell-based, Fasciola hepatica; settings: FIGS. 17K and 17L
Source text: FIGS. 17A-L show representative BZQ/S55 ex vivo activities on Fasciola hepatica adults and immature worms.

SMILES	toxicity [1]	effect on Schistosomes (S. mansoni [2]; treated with BZQ/S55, FIG. 17C)	tegument of S. mansoni in electron microscopy image (S. mansoni [3])	efficacy compared with praziquantel, the standard of treatment (S. mansoni [4])	worm burden (S. mansoni [4])	ex vivo activity on Fasciola hepatica adults and immature worms (Fasciola hepatica; immature (4 weeks post-infection) and adult (12 weeks) flukes from rats)	effect on Fasciola hepatica (Fasciola hepatica; treated with BZQ/S55, FIG. 17C)	tegument of F. hepatica in electron microscopy image (F. hepatica)	effect on Schistosomes (S. mansoni [2]; Praziquantel 500 nM, FIG. 17A)	effect on Fasciola hepatica (Fasciola hepatica; praziquantel 50 μM, FIG. 17B)
O=C(Nn1c(-c2cccc(Cl)c2)nc2ccccc2c1=O)c1ccccc1 [BZQ/S55, N-(2-(3-chlorophenyl)-4-oxoquinazolin-3(4H)-yl)benzamide]	no toxicity was noticed	mimics praziquantel on schistosomes; also recorded: Rapid, sustained contraction and paralysis	tegument was destroyed	as effective as praziquantel	significant reduction in worm burden	active ex vivo	Rapid, sustained contraction and paralysis	notable tegument damage	–	–
O=C(C1CCCCC1)N1CC(=O)N2CCc3ccccc3C2C1 (stereo not drawn) [Praziquantel, praziquantel, reference compound]	–	–	tegument was destroyed	–	significant reduction in worm burden	–	–	–	rapid, spastic paralysis	Neither treatment has an effect
